{
  "source": "patent US5137822A",
  "about": "“Transformed yeasts having steroid-hydroxylase activity and process for hydroxylation of steroids using the said transformed yeasts” (Director-General of Agency of Industrial Science & …, priority 1987, dated 1992)",
  "key": {"[1]": {"molecular_target": "T1, bovine adrenocortical cytochrome P-45017α (Bos taurus, UniProt P05185)", "T1 sequence (P05185 1-509)": "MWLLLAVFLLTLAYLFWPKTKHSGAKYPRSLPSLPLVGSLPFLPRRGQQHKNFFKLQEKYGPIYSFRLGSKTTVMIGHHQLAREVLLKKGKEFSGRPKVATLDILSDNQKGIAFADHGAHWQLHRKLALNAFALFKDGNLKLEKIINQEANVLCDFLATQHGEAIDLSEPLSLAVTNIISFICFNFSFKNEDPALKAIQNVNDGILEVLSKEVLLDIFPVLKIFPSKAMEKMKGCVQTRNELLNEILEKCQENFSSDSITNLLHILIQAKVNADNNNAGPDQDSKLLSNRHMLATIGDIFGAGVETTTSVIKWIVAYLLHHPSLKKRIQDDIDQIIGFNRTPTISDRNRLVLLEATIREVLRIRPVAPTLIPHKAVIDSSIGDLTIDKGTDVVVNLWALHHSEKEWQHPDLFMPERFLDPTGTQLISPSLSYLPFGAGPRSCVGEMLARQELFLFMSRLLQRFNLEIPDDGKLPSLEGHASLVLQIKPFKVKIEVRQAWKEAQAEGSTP", "assay": "C17-20-lyase activity of P-45017α-producing yeasts against 17-hydroxyprogesterone", "type": "cell-based", "set-up": "made in house; host or cells: Saccharomyces cerevisiae AH22(pAα1), microsomal fraction"}, "[2]": {"molecular_target": "T1, bovine adrenocortical cytochrome P-45017α", "conditions": "s. cerevisiae ah22(paα1) culture, 10 µM", "description": "S. cerevisiae AH22(pAα1) and AH22(pAAH5) were separately grown to each 7×10^6 cells/ml in an SD-synthetic-medium (2.0% glucose, 0.67% yeast nitrogen base without amino acids, and 20 μg/ml histidine). To 5.0 ml each of the medium was added 50 μl of 1 mM progesterone in ethanol solution containing 10 μCi of [^3 H]-progesterone (or 50 μl of 1 mM pregnenolone in ethanol solution containing 10 μCi of [3H]-pregnenolone) and the mixture was cultured while shaking. Each 1.0 ml of the medium was sampled at 0, 2, 5 and 23 hours and centrifugated. After 2.0 ml of dichloromethane was added to 0.8 ml of the supernatant, the mixture was vigorously agitated and centrifugated. The dichloromethane layer (1.0 ml) was evaporated to dryness and the residue was dissolved in 20 μl of ethanol/ethyl acetate (1:1 by volume). Ten μl of the solution was applied to TLC. The TLC was developed with chloroform containing 25% ethyl acetate at room temperature for 50 minutes and radioautographed. The silica gel of the spot on the film was scraped out from the plate and the radio activity of the gel was measured with a liquid scintillation counter."}, "[3]": {"molecular_target": "T1, bovine adrenocortical cytochrome P-45017α", "conditions": "microsomes, 5 min, pH 7.4", "description": "After S. cerevisiae AH22(pAα1) was grown to a cell density of 2.0×10^7 cells/ml, the cells were harvested from 1.8 l of the culture broth and suspended in 50 ml of a buffer A (10 mM Tris-HCl (pH 7.5), 2M sorbitol, 0.1 mM DTT and 0.2 mM EDTA). After 20 mg of Zymolyase 100,000 was added to the suspension, the mixture was incubated at 30° C. for 1 hour. The resulting spheroplasts were harvested by centrifugation (5,000 x g for 10 minutes). They were suspended in 100 ml of buffer A and centrifuged. By repeating the centrifugation, the spheroplasts were washed. They were resuspended in 30 ml of a buffer solution (10 mM Tris-HCl (pH 7.5), 0.65M sorbitol and 0.1 mM DTT) and subjected to ultra sonication at 50W for 5 minutes. The mixture was centrifuged at 10,000 x g for 20 minutes, and the supernatant was again centrifuged at 125,000 x g for 70 minutes. The precipitates were suspended in 2.0 ml of 0.1M potassium phosphate buffer (pH 7.4).\nA mixture of 3.6 ml of a 100 mM potassium phosphate buffer (pH 7.4) and 100 μl of a 20 mM NADPH aqueous solution was preincubated at 37° C. for 5 minutes. […] Each 1.0 ml of the mixture was sampled at 0, 2 and 10 minutes and centrifugated. After 2.0 ml each of dichloromethane was added, the sample mixtures were vigorously agitated and centrifugated. The dichloromethane layer (1.0 ml) was evaporated to dryness and the residue was treated in the same manner as in Example 6."}},
  "note": "Like-named read-outs stand apart in the source and are kept apart here.",
  "data": [
    {"compound": "CC(=O)[C@@]1(O)CC[C@H]2[C@@H]3CCC4=CC(=O)CC[C@]4(C)[C@H]3CC[C@@]21C", "note": "[17-hydroxyprogesterone]", "values": [
      {"measurement": "C17-20-lyase activity against 17-hydroxyprogesterone", "setting": "[1]", "result": "almost no C17-20 -lyase activity"}
    ]},
    {"compound": "CC(=O)[C@H]1CC[C@H]2[C@@H]3CC=C4C[C@@H](O)CC[C@]4(C)[C@H]3CC[C@]12C", "note": "[pregnenolone]", "values": [
      {"measurement": "conversion of pregnenolone to 17-hydroxypregnenolone", "setting": "[2]; 2 h", "result": 28, "unit": "%"}
    ]},
    {"compound": "CC(=O)[C@H]1CC[C@H]2[C@@H]3CCC4=CC(=O)CC[C@]4(C)[C@H]3CC[C@]12C", "note": "[progesterone]", "values": [
      {"measurement": "added progesterone converted to 17-hydroxyprogesterone", "setting": "[3]; 2 µM", "result": 88, "unit": "%"},
      {"measurement": "added progesterone converted to 17-hydroxyprogesterone", "setting": "[3]; 10 µM", "result": 49, "unit": "%"},
      {"measurement": "added progesterone converted to 17-hydroxyprogesterone", "setting": "[3]; 50 µM", "result": 17, "unit": "%"},
      {"measurement": "conversion of progesterone to 17-hydroxyprogesterone", "setting": "[2]; 5 h", "result": 87, "unit": "%"},
      {"measurement": "conversion of progesterone to 17-hydroxyprogesterone", "setting": "[2]; 23 h", "result": 97, "unit": "%"}
    ]}
  ]
}
